{"source": "patent US8748491B2", "about": "“Dietary and pharmaceutical compositions containing tricyclic diterpenes and their derivatives and their uses” (priority 2006, dated 2014)", "key": {"mouse": {"test_system": "mouse", "assay": "Marble burying test", "type": "in vivo", "conditions": "mouse; for NUMBER OF MARBLES COVERED BY SAWDUST % change from control / NUMBER OF MARBLES COVERED BY SAWDUST mean ± s.e.m.: Table 5", "experimental": "The method applied here follows that described by Broekkamp et al., supra. Mice (n=15 per treatment group) were individually placed in transparent plastic cages (33×21×18 cm) with 5 cm of sawdust on the floor and 25 marbles (diameter 1 cm) grouped in the centre of the cage. A second, up-turned, cage served as a lid. The number of marbles covered by sawdust (by at least two-thirds) was counted at the end of the 30-minute test period. Tests were performed by investigators blind to the drug treatment protocol.\nPrior to testing, all test cages and marbles were “impregnated” by leaving 10 naive mice in each cage for 15 minutes. […]\nData were analysed by comparing treated groups with vehicle control using unpaired Student's t-tests."}, "[1]": {"molecular_target": "T1, Monoamine oxidase B (MAO-B) (Homo sapiens, UniProt P27338)", "T1 sequence (P27338 1-520)": "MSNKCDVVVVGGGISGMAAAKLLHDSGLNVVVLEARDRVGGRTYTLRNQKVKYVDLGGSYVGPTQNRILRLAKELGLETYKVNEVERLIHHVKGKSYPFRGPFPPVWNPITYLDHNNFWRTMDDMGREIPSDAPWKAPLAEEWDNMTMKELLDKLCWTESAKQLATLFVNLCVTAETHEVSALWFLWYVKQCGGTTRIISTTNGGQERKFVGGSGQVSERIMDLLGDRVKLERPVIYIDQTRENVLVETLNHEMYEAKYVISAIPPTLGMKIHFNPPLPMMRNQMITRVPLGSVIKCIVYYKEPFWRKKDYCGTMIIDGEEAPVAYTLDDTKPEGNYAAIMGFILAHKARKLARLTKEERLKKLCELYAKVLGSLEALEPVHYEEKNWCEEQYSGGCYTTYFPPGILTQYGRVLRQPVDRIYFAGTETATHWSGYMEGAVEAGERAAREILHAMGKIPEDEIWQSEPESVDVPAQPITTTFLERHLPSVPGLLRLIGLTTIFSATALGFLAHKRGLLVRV", "assay": "Monoamine oxidase B inhibition (benzylamine substrate, H2O2/vanillic acid/HRP readout)", "type": "biochemical", "experimental": "The organic amines p-tyramine or benzylamine were used as substrates for the Monoamine oxidase A (MAO-A) and B (MAO-B) enzymes respectively. The H2O2 produced by this reaction was quantified by reaction with vanillic acid, catalysed by horse radish peroxidase (HRP).\nThe reactions were carried out in polystyrene microtitre plates. The MAO enzymes (final concentration 2 U/ml) were mixed with either p-tyramine (Sigma, final concentration 0.5 mM) or benzylamine (Sigma, final concentration 0.5 mM) as appropriate and the chromogenic solution (containing vanillic acid (Fluka), 4-aminoantipyrine (Fluka) and horse radish peroxidase (Sigma), final concentrations 0.25 mM, 0.125 mM and 1 U/ml respectively) in 0.2 M potassium phosphate buffer, pH 7.6. The reactions were followed in a microtitre plate absorbance reader e.g. Spectramax M5 (Molecular Devices Corporation). Absorbance readings at 495 nm were taken every 15 seconds for 40 minutes and the initial reaction velocities calculated by linear regression using SOFTmaxPro (Molecular Devices Corporation).\nThe effect of tricyclic diterpenes and their derivatives according to formula I on the monoamine oxidase enzymes was determined by their inclusion in the assay at a range of concentrations between 0.03 and 100 μM for 10 minutes prior to and during the incubation with substrate. To determine the effect of the compounds on the HRP catalyzed portion of the reaction, the MAO enzyme was replaced by H2O2 (Molecular Probes, final concentration 0.2 mM). The reactions containing MAO-A and MAO-B were both inhibited by tricyclic diterpenes and their derivatives according to formula I in a dose-dependent manner, whilst the control reaction, was unaffected. The measured IC50 values for inhibition of monoamine oxidase activity by carnosic acid, carnosic acid-12-methyl ether and 20-deoxo-carnosol are shown in Table 3."}, "[2]": {"molecular_target": "T2, human dopamine transporter (hDAT) (Homo sapiens, UniProt Q01959)", "T2 construct": "expressed in transfected cells; host or cells: CHO-Ki (so in the source)", "T2 sequence (Q01959 whole entry)": "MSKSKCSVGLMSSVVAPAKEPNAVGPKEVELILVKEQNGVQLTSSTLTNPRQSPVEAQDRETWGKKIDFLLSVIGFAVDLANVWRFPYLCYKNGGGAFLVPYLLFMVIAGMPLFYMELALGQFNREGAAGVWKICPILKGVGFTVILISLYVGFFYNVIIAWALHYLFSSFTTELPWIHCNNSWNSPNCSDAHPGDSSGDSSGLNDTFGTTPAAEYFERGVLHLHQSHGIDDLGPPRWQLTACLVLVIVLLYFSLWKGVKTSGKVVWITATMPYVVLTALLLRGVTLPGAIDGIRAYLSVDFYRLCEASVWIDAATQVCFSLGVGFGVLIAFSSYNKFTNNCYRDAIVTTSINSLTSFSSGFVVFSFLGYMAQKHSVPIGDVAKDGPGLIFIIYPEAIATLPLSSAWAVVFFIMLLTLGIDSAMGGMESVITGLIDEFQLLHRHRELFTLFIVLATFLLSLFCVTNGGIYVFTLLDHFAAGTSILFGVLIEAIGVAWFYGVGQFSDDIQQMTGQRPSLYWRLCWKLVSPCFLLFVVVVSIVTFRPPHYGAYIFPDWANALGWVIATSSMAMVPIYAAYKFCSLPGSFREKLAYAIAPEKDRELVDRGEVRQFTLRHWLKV", "assay": "Inhibition of dopamine reuptake into transfected CHO-Ki/hDAT cells", "type": "cell-based", "conditions": "50 nM [3H]Dopamine", "experimental": "CHO-Ki/hDAT cells expressing the human dopamine transporter (hDAT) were plated before the assay. Cells (2×10^5/ml) were incubated with carnosic acid and/or vehicle in modified Tris-HEPES buffer, pH 7.1, at 25° C. for 20 minutes before addition of 50 nM [^3H]Dopamine for 10 minutes. Specific signal was determined in the presence of 10 μM nomifensine (dopamine reuptake inhibitor). Cells were then solubilised with 1% SDS lysis buffer. Reduction of [^3H]Dopamine uptake by 50 per cent or more (≧50%) relative to vehicle controls indicated significant inhibitory activity."}, "[3]": {"molecular_target": "T3, human serotonin re-uptake transporter (hSERT) (Homo sapiens, UniProt P31645)", "T3 construct": "host or cells: HEK-293", "T3 sequence (P31645 whole entry)": "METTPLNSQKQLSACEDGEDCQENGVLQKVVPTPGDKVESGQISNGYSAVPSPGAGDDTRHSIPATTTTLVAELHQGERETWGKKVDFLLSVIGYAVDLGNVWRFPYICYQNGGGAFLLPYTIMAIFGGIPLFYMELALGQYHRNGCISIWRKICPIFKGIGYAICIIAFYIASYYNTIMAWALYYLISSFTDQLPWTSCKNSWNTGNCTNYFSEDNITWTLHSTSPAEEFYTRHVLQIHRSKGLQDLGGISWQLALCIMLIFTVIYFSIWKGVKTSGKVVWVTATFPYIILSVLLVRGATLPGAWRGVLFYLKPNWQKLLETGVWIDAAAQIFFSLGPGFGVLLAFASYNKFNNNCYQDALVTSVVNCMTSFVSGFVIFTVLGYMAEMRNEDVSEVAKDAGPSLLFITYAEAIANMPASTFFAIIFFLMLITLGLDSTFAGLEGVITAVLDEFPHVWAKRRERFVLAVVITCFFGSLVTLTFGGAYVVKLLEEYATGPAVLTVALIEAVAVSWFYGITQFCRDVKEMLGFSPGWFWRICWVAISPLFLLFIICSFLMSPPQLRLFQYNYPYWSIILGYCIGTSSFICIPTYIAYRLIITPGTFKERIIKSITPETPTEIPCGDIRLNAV", "assay": "Inhibition of tritiated serotonin uptake into transfected HEK-293 cells", "type": "cell-based", "conditions": "HEK-293 cells expressing hSERT; 20 nM [3H] serotonin, 40 min, 37° C.; mean ± s.e.m.", "description": "HEK-293 cells stably expressing the human serotonin re-uptake transporter (hSERT) were obtained from R. Blakely, Vanderbilt University, USA. The cells were routinely grown in Dulbecco's Modified Eagle's Medium (Bioconcept) containing 10% fetal calf serum, penicillin, streptomycin, L-glutamine and the antibiotic G418 and passaged by trypsinisation. On the day of assay, cells from 80% confluent flasks were harvested by gentle washing with warm phosphate buffered saline (PBS). […] Serotonin uptake into the cells was determined by addition of radio-labelled [^3H] serotonin (GE Healthcare) at a concentration of 20 nM, and incubation for 40 minutes at 37° C. with gentle shaking. At the end of this time unincorporated label was removed by filtration though Unifilter 96 GF/B plates (Perkin Elmer) using a Tomtec Mach III M cell harvester. The incorporated serotonin retained on the plates was quantified by liquid scintillation counting using Microscint-40/Topcount (Perkin Elmer)."}}}
{"smiles": "CC(C)c1cc2c(c(O)c1O)[C@@]1(C(=O)O)CCCC(C)(C)[C@@H]1CC2", "note": "[Carnosic acid, carnosic acid]", "values": [{"measurement": "NUMBER OF MARBLES COVERED BY SAWDUST % change from control", "setting": "mouse; 3 mg/kg i.p. −30 min", "value": "−8", "unit": "%"}, {"measurement": "NUMBER OF MARBLES COVERED BY SAWDUST mean ± s.e.m.", "setting": "mouse; 3 mg/kg i.p. −30 min", "value": "21.9 ± 1.3"}, {"measurement": "NUMBER OF MARBLES COVERED BY SAWDUST % change from control", "setting": "mouse; 10 mg/kg i.p. −30 min", "value": "−4", "unit": "%"}, {"measurement": "NUMBER OF MARBLES COVERED BY SAWDUST mean ± s.e.m.", "setting": "mouse; 10 mg/kg i.p. −30 min", "value": "22.7 ± 0.5"}, {"measurement": "NUMBER OF MARBLES COVERED BY SAWDUST % change from control", "setting": "mouse; 30 mg/kg i.p. −30 min", "value": "−63", "unit": "%"}, {"measurement": "NUMBER OF MARBLES COVERED BY SAWDUST mean ± s.e.m.", "setting": "mouse; 30 mg/kg i.p. −30 min", "value": "8.7 ± 2.9"}, {"measurement": "marble burying behaviour (in words)", "setting": "mouse; highest dose tested (30 mg/kg) i.p.", "value": "clearly and significantly reduced marble burying behaviour"}, {"measurement": "IC50", "setting": "[1]", "value": "8.6 ± 0.6", "unit": "µM"}, {"measurement": "IC50", "setting": "[2]", "value": 15, "unit": "µM"}, {"measurement": "IC50", "setting": "[3]", "value": "36.4 ± 6.8", "unit": "µM"}]}
